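Dose response: 5 concentrations. Exposure: 48 h. Format: 96-well plates. Endpoint: linear interpolation; highest concentration if not reached. The concentration for 50% growth inhibition is given as GI50.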 Calls of active or inactive are those of the source. Rule as the data show it: active = GI50 up to about 1.1 µM and inactive = higher.
What was measured:
Test in all cases: NCI tumour cell line growth inhibition, 48 h
[1] = test system: PC-3
[2] = test system: SN12C
[3] = test system: ACHN
[4] = test system: HT-29
[5] = test system: SNB-19
[6] = test system: LOX IMVI
[7] = test system: KM12
[8] = test system: CCRF-CEM
[9] = test system: NCI-H226
[10] = test system: SR
[11] = test system: SNB-75
[12] = test system: NCI-H460
[13] = test system: MOLT-4
[14] = test system: MDA-MB-231
[15] = test system: UACC-62
[16] = test system: UO-31
[17] = test system: MCF7
[18] = test system: UACC-257
[19] = test system: COLO 205
[20] = test system: K562
[21] = test system: NCI-H23
[22] = test system: 786-0
[23] = test system: TK-10
[24] = test system: OVCAR-3
[25] = test system: OVCAR-4
[26] = test system: SW-620
[27] = test system: A549
[28] = test system: HOP-92
[29] = test system: OVCAR-5
[30] = test system: IGROV-1
[31] = test system: SK-MEL-28
[32] = test system: OVCAR-8
[33] = test system: Hs-578T
[34] = test system: M14
[35] = test system: NCI/ADR-RES
[36] = test system: BT-549
[37] = test system: SF-295
[38] = test system: RPMI-8226
[39] = test system: DU-145
[40] = test system: SK-MEL-5
[41] = test system: HOP-62
[42] = test system: A498
[43] = test system: SF-539
[44] = test system: HCC 2998
[45] = test system: CAKI-1
[46] = test system: U-251
[47] = test system: SK-MEL-2
[48] = test system: RXF 393
[49] = test system: Malme-3M
[50] = test system: SF-268
[51] = test system: HCT-116
[52] = test system: EKVX
[53] = test system: HCT-15
[54] = test system: HL-60
[55] = test system: T47D
[56] = test system: SK-OV-3
[57] = test system: MDA-MB-435
[58] = test system: NCI-H522
[59] = test system: MDA-N

For `Cc1cn(S(=O)(=O)c2ccccc2)c2c(OCc3ccccc3)cc([N+](=O)[O-])cc12`, the GI50 [1] was 32.9 µM (inactive), the GI50 [2] was 57.7 µM (inactive) and the GI50 [3] was 61.7 µM (inactive). The GI50 [4] was > 100 µM (inactive), the GI50 [5] was 56.4 µM (inactive) and the GI50 [6] was > 100 µM (inactive). The GI50 [7] was > 100 µM (inactive), the GI50 [8] was > 100 µM (inactive) and the GI50 [9] was 58.7 µM (inactive). For the same compound, the GI50 [10] was < 0.01 µM (active), the GI50 [11] was 25.3 µM (inactive) and the GI50 [12] was > 100 µM (inactive). For the same compound, the GI50 [13] was > 100 µM (inactive), the GI50 [14] was 80.9 µM (inactive) and the GI50 [15] was 21.3 µM (inactive). For the same compound, the GI50 [16] was 69.3 µM (inactive), the GI50 [17] was 32.4 µM (inactive) and the GI50 [18] was > 100 µM (inactive). For the same compound, the GI50 [19] was > 100 µM (inactive), the GI50 [20] was > 100 µM (inactive) and the GI50 [21] was 96.8 µM (inactive). The GI50 [22] was 27.1 µM (inactive), the GI50 [23] was > 100 µM (inactive) and the GI50 [24] was > 100 µM (inactive). The GI50 [25] was 86.3 µM (inactive), the GI50 [26] was 63 µM (inactive) and the GI50 [27] was 41.5 µM (inactive). For the same compound, the GI50 [28] was 74 µM (inactive), the GI50 [29] was > 100 µM (inactive) and the GI50 [30] was 71 µM (inactive). For the same compound, the GI50 [31] was 79.8 µM (inactive), the GI50 [32] was > 100 µM (inactive) and the GI50 [33] was 26 µM (inactive). For the same compound, the GI50 [34] was > 100 µM (inactive), the GI50 [35] was > 100 µM (inactive) and the GI50 [36] was > 100 µM (inactive). The GI50 [37] was 27.9 µM (inactive), the GI50 [38] was > 100 µM (inactive) and the GI50 [39] was > 100 µM (inactive). For the same compound, the GI50 [40] was 6.17 µM (inactive), the GI50 [41] was > 10 µM (inactive) and the GI50 [42] was 30.6 µM (inactive). For the same compound, the GI50 [43] was > 100 µM (inactive), the GI50 [44] was > 100 µM (inactive) and the GI50 [45] was > 100 µM (inactive). The GI50 [46] was 31 µM (inactive), the GI50 [47] was 62.4 µM (inactive) and the GI50 [48] was 25.1 µM (inactive). For the same compound, the GI50 [49] was 17.5 µM (inactive), the GI50 [50] was > 100 µM (inactive) and the GI50 [51] was > 100 µM (inactive). The GI50 [52] was 35.7 µM (inactive), the GI50 [53] was over 100 µM and the GI50 [54] was > 100 µM (inactive). For the same compound, the GI50 [55] was 29.2 µM (inactive), the GI50 [56] was 50.8 µM (inactive) and the GI50 [57] was 3.92 µM (inactive). For the same compound, the GI50 [58] was 70.5 µM (inactive).
In the case of `CCCCC1=C(C(=O)N2CCOCC2)C2(OCCO2)C1=O`, the GI50 [59] is reported as 21.4 µM (inactive), the GI50 [1] is reported as 31.8 µM (inactive) and the GI50 [2] is reported as 13.5 µM (inactive). For the same compound, the GI50 [3] was 17.4 µM (inactive), the GI50 [4] was 18.8 µM (inactive) and the GI50 [5] was 14 µM (inactive). The GI50 [6] was 12.8 µM (inactive), the GI50 [7] was 20.4 µM (inactive) and the GI50 [8] was 32.2 µM (inactive). For the same compound, the GI50 [9] was 2.86 µM (inactive), the GI50 [10] was 83.8 µM (inactive) and the GI50 [11] was 43.5 µM (inactive). The GI50 [12] was 24.8 µM (inactive), the GI50 [13] was 51.2 µM (inactive) and the GI50 [15] was 34.9 µM (inactive). For the same compound, the GI50 [16] was 15.5 µM (inactive), the GI50 [17] was 44.6 µM (inactive) and the GI50 [18] was 28.9 µM (inactive). The GI50 [19] was 17.7 µM (inactive), the GI50 [21] was 18.3 µM (inactive) and the GI50 [22] was 18.2 µM (inactive). For the same compound, the GI50 [23] was 33.3 µM (inactive), the GI50 [24] was 19.5 µM (inactive) and the GI50 [25] was 23.1 µM (inactive). For the same compound, the GI50 [26] was 27.3 µM (inactive), the GI50 [27] was 18 µM (inactive) and the GI50 [28] was 23.1 µM (inactive). The GI50 [29] was 16.9 µM (inactive), the GI50 [30] was 17.9 µM (inactive) and the GI50 [31] was 27.5 µM (inactive). The GI50 [32] was 23.2 µM (inactive), the GI50 [33] was 31.7 µM (inactive) and the GI50 [34] was 17.8 µM (inactive). For the same compound, the GI50 [35] was 22.2 µM (inactive), the GI50 [36] was 23 µM (inactive) and the GI50 [37] was 32.5 µM (inactive). The GI50 [39] was 33 µM (inactive), the GI50 [40] was 16.5 µM (inactive) and the GI50 [41] was 23.6 µM (inactive). The GI50 [42] was 27.8 µM (inactive), the GI50 [43] was 23 µM (inactive) and the GI50 [45] was 21.9 µM (inactive). The GI50 [46] was 31.3 µM (inactive), the GI50 [47] was 25.1 µM (inactive) and the GI50 [48] was 21.1 µM (inactive). For the same compound, the GI50 [49] was 20.6 µM (inactive), the GI50 [50] was 24 µM (inactive) and the GI50 [51] was 18.5 µM (inactive). The GI50 [52] was 26.2 µM (inactive), the GI50 [53] was 18.2 µM and the GI50 [54] was 30.2 µM (inactive). The GI50 [55] was 33.9 µM (inactive), the GI50 [56] was 62.4 µM (inactive) and the GI50 [57] was 18.5 µM (inactive). For the same compound, the GI50 [58] was 15.7 µM (inactive).
For `[N-]=[N+]=NC1C(O)C(CO)OC1n1ccc(N)nc1=O` (stereo unspecified), the GI50 [59] was 93.1 µM (inactive), the GI50 [1] was 182 µM (inactive) and the GI50 [2] was 227 µM (inactive). The GI50 [3] was 33.9 µM (inactive), the GI50 [4] was 204 µM (inactive) and the GI50 [5] was 18.2 µM (inactive). For the same compound, the GI50 [6] was 232 µM (inactive), the GI50 [7] was 187 µM (inactive) and the GI50 [8] was 0.444 µM (active). For the same compound, the GI50 [9] was > 625 µM (inactive), the GI50 [10] was 28.5 µM (inactive) and the GI50 [11] was 430 µM (inactive). The GI50 [12] was 235 µM (inactive), the GI50 [13] was 2.3 µM (inactive) and the GI50 [14] was 195 µM (inactive). For the same compound, the GI50 [15] was 147 µM (inactive), the GI50 [16] was 228 µM (inactive) and the GI50 [17] was 24 µM (inactive). The GI50 [18] was 369 µM (inactive), the GI50 [19] was 160 µM (inactive) and the GI50 [20] was 294 µM (inactive). The GI50 [21] was 29.9 µM (inactive), the GI50 [22] was 118 µM (inactive) and the GI50 [23] was 175 µM (inactive). For the same compound, the GI50 [24] was 68.2 µM (inactive), the GI50 [25] was > 625 µM (inactive) and the GI50 [26] was 159 µM (inactive). For the same compound, the GI50 [27] was 219 µM (inactive), the GI50 [28] was 403 µM (inactive) and the GI50 [29] was 245 µM (inactive). For the same compound, the GI50 [30] was 310 µM (inactive), the GI50 [31] was 416 µM (inactive) and the GI50 [32] was 55.5 µM (inactive). The GI50 [33] was 532 µM (inactive), the GI50 [34] was 26.1 µM (inactive) and the GI50 [35] was 200 µM (inactive). The GI50 [36] was 161 µM (inactive), the GI50 [37] was 530 µM (inactive) and the GI50 [38] was 223 µM (inactive). For the same compound, the GI50 [39] was 212 µM (inactive), the GI50 [40] was > 625 µM (inactive) and the GI50 [41] was 104 µM (inactive). For the same compound, the GI50 [42] was 91.8 µM (inactive), the GI50 [43] was 165 µM (inactive) and the GI50 [44] was 46.7 µM (inactive). The GI50 [45] was 185 µM (inactive), the GI50 [46] was 195 µM (inactive) and the GI50 [47] was 76.7 µM (inactive). For the same compound, the GI50 [48] was > 206 µM (inactive), the GI50 [49] was 93.8 µM (inactive) and the GI50 [50] was 191 µM (inactive). For the same compound, the GI50 [51] was > 172 µM (inactive), the GI50 [52] was 429 µM (inactive) and the GI50 [53] was 56.2 µM. For the same compound, the GI50 [54] was 3.83 µM (inactive), the GI50 [56] was > 625 µM (inactive) and the GI50 [57] was 44.3 µM (inactive). The GI50 [58] was 37.6 µM (inactive).

From ChEMBL document CHEMBL1201862, “PubChem BioAssay data set” (2004)
